Assay results from patent US20260199484A1, “PROTAC DEGRADERS OF MLLT1 AND/OR MLLT3” (DARK BLUE THERAPEUTICS LTD, priority 2024, published 2026).

Key:
MLLT1 = target: T1, MLLT1 (Homo sapiens, UniProt Q03111); assay: MLLT1 DC50 and Dmax determination in MV4-11 cells (JESS, 4 h); assay type: cell-based; set-up: endogenous in cells; host or cells: MV4-11 (ATCC CRL-9591); settings: MLLT1 degradation
T1 sequence (Q03111 1-559): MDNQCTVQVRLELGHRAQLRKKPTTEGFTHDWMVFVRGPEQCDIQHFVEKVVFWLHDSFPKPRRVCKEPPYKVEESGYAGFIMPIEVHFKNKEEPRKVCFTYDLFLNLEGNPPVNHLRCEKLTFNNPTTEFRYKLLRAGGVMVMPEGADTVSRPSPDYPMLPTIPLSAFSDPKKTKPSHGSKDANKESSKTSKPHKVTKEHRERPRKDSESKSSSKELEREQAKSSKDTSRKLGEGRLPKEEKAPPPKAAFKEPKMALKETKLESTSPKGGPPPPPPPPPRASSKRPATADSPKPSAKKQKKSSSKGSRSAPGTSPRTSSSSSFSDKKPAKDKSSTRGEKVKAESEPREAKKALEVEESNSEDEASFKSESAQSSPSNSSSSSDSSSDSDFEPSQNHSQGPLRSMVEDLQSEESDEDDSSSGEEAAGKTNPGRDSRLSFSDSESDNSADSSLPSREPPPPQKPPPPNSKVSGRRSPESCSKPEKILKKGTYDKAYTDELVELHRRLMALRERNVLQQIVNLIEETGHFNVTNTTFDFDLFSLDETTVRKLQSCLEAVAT
Procedure: MLLT1 degradation efficacy of compounds was tested in an automated chemiluminescent detection system (JESS, Cat #004-650). MV4-11 (#CRL-9591, ATCC) were seeded at a density of 1.2 million cells/well in a non-treated 6-well cell culture plate in 2.4 mL of complete medium (IMDM+10% FBS+1× Penicillin-Streptomycin). 10 mM DMSO stocks were prepared, and cells were treated with eight concentrations of test compounds, starting from 100 nM, 5-fold dilution, at a final DMSO concentration of 0.1% and incubated for 4 h at 37° C., 5% CO2. Post incubation, cells were centrifuged, washed with HBSS and lysed in 60 μL of RIPA buffer supplemented with Protease inhibitors (sc-24948; Santa Cruz). Protein estimation was done using BCA protein assay kit (23228; Pierce). 4 gg protein lysate (4 μL of 1 μg/μL lysate) was loaded into each well of the JESS cartridge (SM-W004; Bio-techne) and the JESS run was performed using 1:900 dilution of anti-human MLLT1 antibody (ABE2596; Merck) and 1:1200 dilution of anti-human GAPDH antibody (2118; Cell signaling technology) with anti-rabbit secondary detection module (DM-001; Bio-Techne). Post run, data was analysed using “Compass for SW” software for chemiluminescent detection. Peak fit was done using “dropped lines” method. Peak area for MLLT1 and GAPDH was used for the calculation of MLLT1 degradation with respect to DMSO control. Data was shown as “% degradation”. % Degradation was plotted against the respective doses (test compound concentration) and dose-response curve (DRC) was generated using four-parameter logistic equation (non-linear regression). Following parameters for each DRC was captured: DC50 (concentration in nM at which degradation is 50%, interpolated from standard curve and transformed to linear scale), Dmax (maximum % degradation observed). DC50 and Dmax data are captured in Table 7 for Example 1 and Example 110, which is a comparative example.

human AML = assay: in vivo mouse model of human AML (procedure of Example 112); settings: oral administration, FIG. 1

In the case of `Cc1nn(CCCCCCCC#Cc2cccc3c2CN(C2CCC(=O)NC2=O)C3=O)c2cc(C(=O)Nc3cc4[nH]c([C@H]5CCCN5C)cc4cn3)ccc12` (mixture of isomers) [Example 1, 1-(9-(2-(2,6-dioxopiperidin-3-yl)-1-oxoisoindolin-4-yl)non-8-yn-1-yl)-3-methyl-N-(2-((R)-1-methylpyrrolidin-2-yl)-1H-pyrrolo[3,2-c]pyridin-6-yl)-1H-indazole-6-carboxamide], the DC50 (MLLT1) is reported as 0.5 nM, the Dmax (MLLT1; maximum % degradation observed) is reported as 87% and the tumour growth (human AML) is reported as “reduction in tumour growth”.
